Read-outs that look alike come from different tables or passages of the source.
Assays:
[1] = test system: KYSE-150 (human oesophagus carcinoma); assay: MTT cytotoxicity assay, KYSE-150; format: cell-based; details: 48 hrs treatment
Protocol: (§1) Cytotoxic activities of all compounds were evaluated by MTT assay using KYSE-150 (human oesophagus carcinoma), MKN-45 (human gastric aednocarcinoma), DLD-1 (human colorectal carcinoma cell line), Hep G2 (human hepatocellular carcinoma). […] 3ag, 3al, 3an, 3ea and 3ha also have the same inhibitory effect on different cell lines with IC50 value lower than 10 μM. Thus, except 3ac, 3ad, 3ae, 3ah, and 3ab, the other compounds all exert definitely anti-cancer effect.
(§2) In this study, all compounds were dissolved in dimethyl sulfoxide (DMSO) to make stock solutions and further diluted in culture medium for this experiment. Human cancer cell lines, including one gastric adenocarcinoma cell line (MKN-45), one colon carcinoma cell line (DLD-1), one esophageal carcinoma cell line (KYSE-150) and one hepatocellular carcinoma cell line (HepG2) were cultured in RPMI 1640 or DMEM medium, containing 10% fetal bovine serum and 1% antibiotics (Penicillin and strep). The cell lines were cultured at 37° C. in a humidified environment containing 5% CO2. To determine the effects of the compounds on cell viability, a standard colorimetric 3-(4,5-dimethylthiazol-2-yl)-2,5-diphenyltetrazolium bromide (MTT) assay was used to test the cell number. Cells were seeded in a 96-well plate (4×10^3 cells/well) and allowed to attach overnight. After the recovery, cells were treated with 1.56, 3.125, 6.25, 12.5, 25, 50 μM of compounds in culture medium for 48 hrs. Then, 20 μL of MTT (5 mg/mL stock in PBS) per well was added into the medium (200 μL) and incubated for 4 hrs at 37° C. Finally, the culture medium was removed and 200 μL of DMSO were added to dissolve the purple formazan crystals. Absorbance of the solution was measured using microplate reader spectrophotometer (Bio-Rad Laboratories, Inc., Hercules, Calif.) at a wavelength of 570 nm.

[2] = test system: MKN-45 (human gastric aednocarcinoma); assay: MTT cytotoxicity assay, MKN-45; format: cell-based; details: 48 hrs treatment
Protocol: as §1, §2

[3] = test system: Hep G2 (human hepatocellular carcinoma); assay: MTT cytotoxicity assay, Hep G2; format: cell-based; details: HepG2, 48 hrs treatment
Protocol: as §1, §2

[4] = test system: DLD-1 (human colorectal carcinoma cell line); assay: MTT cytotoxicity assay, DLD-1; format: cell-based; details: 48 hrs treatment
Protocol: as §1, §2

KYSE-150 cells [5] = assay: Wound healing assay; format: cell-based, human; details: 48 h
Protocol: Original magnification, 5×.
Further, wound-healing assay was used to test whether those novel compounds could affect cell motility.
A wound-healing assay was performed as follows: cells were seeded in 12 wells plate at 50% confluence in completed medium. After 24 hrs seeding, the monolayer was wounded by scoring with a sterile plastic tip (1 mL), then washed several times with medium to remove cell debris and then incubated in conditioned medium in the absence or presence of tested compounds for various periods of time up to 48 h. […] Cell migration into the wound surface was monitored by Olympus IX71 microscopy and digitally photographed.

KYSE-150 cells [6] = assay: Wound healing assay; format: cell-based, human
[7] = test system: KYSE-150, MKN-45, DLD-1, Hep G2; assay: MTT cytotoxicity assay, summary over the test cell lines; format: cell-based; details: Homo sapiens, summary of Table 6
Protocol: as §1, §2

[8] = all test cell lines, read-out: IC50, cell growth-inhibiting effect against all test cell lines (below or near)
[9] = on different (not all) cell lines, read-out: IC50, inhibitory effect on different cell lines

O=C(Cc1ccc2ccccc2c1)c1ccccc1 [Compound 3aa, 2-(naphthalen-2-yl)-1-phenylethanone]
IC50 [1]: 10.9 µM | IC50 [2]: 15.6 µM | IC50 [3]: 20.8 µM | IC50 [4]: 12.4 µM | cell migration into the wound (KYSE-150 cells [5]; 10 μM): did not migrate into the wound | melting point: 122 to 124 °C | viability of KYSE-150 cells compared to controls (KYSE-150 cells [6]; 10 μM): did not alter the viability

COc1ccc(C(=O)Cc2ccc3ccccc3c2)cc1 [Compound 3ab, 1-(4-methoxyphenyl)-2-(naphthalen-2-yl) ethanone]
IC50 [1]: 5.19 µM | IC50 [2]: 10.1 µM | IC50 [3]: 7.63 µM | IC50 [4]: 7.89 µM | cell migration into the wound (KYSE-150 cells [5]; 10 μM): did not migrate into the wound | IC50 [7, 8]: ~10 µM | melting point: 125 to 127 °C | viability of KYSE-150 cells compared to controls (KYSE-150 cells [6]; 10 μM): did not alter the viability

COc1ccccc1C(=O)Cc1ccc2ccccc2c1 [Compound 3ac, 1-(2-methoxyphenyl)-2-(naphthalen-2-yl) ethanone]
IC50 [1]: > 50 µM | IC50 [2]: > 50 µM | IC50 [3]: > 50 µM | IC50 [4]: > 50 µM | melting point: 100 to 102 °C

COc1cccc(C(=O)Cc2ccc3ccccc3c2)c1 [Compound 3ad, 1-(3-methoxyphenyl)-2-(naphthalen-2-yl) ethanone]
IC50 [1]: > 50 µM | IC50 [2]: > 50 µM | IC50 [3]: > 50 µM | IC50 [4]: > 50 µM | melting point: 102 to 103 °C

COc1cc(OC)cc(C(=O)Cc2ccc3ccccc3c2)c1 [Compound 3ae, 1-(3,5-dimethoxyphenyl)-2-(naphthalen-2-yl) ethanone]
IC50 [1]: > 50 µM | IC50 [2]: > 50 µM | IC50 [3]: 42.8 µM | IC50 [4]: > 50 µM | melting point: 70 to 71 °C

O=C(Cc1ccc2ccccc2c1)c1ccc(F)cc1 [Compound 3af, 1-(4-fluorophenyl)-2-(naphthalen-2-yl) ethanone]
IC50 [1]: 2.56 µM | IC50 [2]: 4.04 µM | IC50 [3]: 4.23 µM | IC50 [4]: 5.27 µM | IC50 [7, 8]: ~10 µM | melting point: 145 to 147 °C

O=C(Cc1ccc2ccccc2c1)c1ccc(Oc2ccccc2)cc1 [Compound 3ag, 2-(naphthalen-2-yl)-1-(4-phenoxyphenyl) ethanone]
IC50 [1]: 1.19 µM | IC50 [2]: > 50 µM | IC50 [3]: 4.84 µM | IC50 [4]: 4.95 µM | IC50 [7, 9]: < 10 µM | melting point: 139 to 141 °C

O=C(Cc1ccc2ccccc2c1)c1ccc(OC(F)(F)F)cc1 [Compound 3ah, 2-(naphthalen-2-yl)-1-(4-(trifluoromethoxy)phenyl) ethanone]
IC50 [1]: > 50 µM | IC50 [2]: > 50 µM | IC50 [3]: > 50 µM | IC50 [4]: > 50 µM | melting point: 153 to 154 °C

O=C(Cc1ccc2ccccc2c1)c1ccc(Br)cc1 [Compound 3ai, 1-(4-bromophenyl)-2-(naphthalen-2-yl) ethanone]
IC50 [1]: 2.02 µM | IC50 [2]: 4.45 µM | IC50 [3]: 1.32 µM | IC50 [4]: 3.3 µM | IC50 [7, 8]: ~10 µM | melting point: 157 to 159 °C

Cc1ccc(C(=O)Cc2ccc3ccccc3c2)cc1 [Compound 3aj, 2-(naphthalen-2-yl)-1-(p-tolyl) ethanone]
IC50 [1]: 18.4 µM | IC50 [2]: 12 µM | IC50 [3]: > 50 µM | IC50 [4]: > 50 µM | melting point: 144 to 146 °C

O=C(Cc1ccc2ccccc2c1)c1ccc(CO)cc1 [Compound 3ak, 1-(4-(hydroxymethyl)phenyl)-2-(naphthalen-2-yl) ethanone]
IC50 [1]: 31.3 µM | IC50 [2]: > 50 µM | IC50 [3]: > 50 µM | IC50 [4]: 48.2 µM | melting point: 97 to 98 °C

O=C(Cc1ccc2ccccc2c1)c1ccc(C(F)(F)F)cc1 [Compound 3al, 2-(naphthalen-2-yl)-1-(4-(trifluoromethyl)phenyl) ethanone]
IC50 [1]: 4.75 µM | IC50 [2]: > 50 µM | IC50 [3]: 29.9 µM | IC50 [4]: 37.4 µM | IC50 [7, 9]: < 10 µM | melting point: 179 to 181 °C

N#Cc1ccc(C(=O)Cc2ccc3ccccc3c2)cc1 [Compound 3am, 4-(2-(naphthalen-2-yl)acetyl) benzonitrile]
IC50 [1]: 33.5 µM | IC50 [2]: > 50 µM | IC50 [3]: > 50 µM | IC50 [4]: > 50 µM | melting point: 152 to 154 °C

[2H]C(C(=O)c1ccccc1)c1ccc2ccccc2c1 (stereo not shown) [Compound 3an, 2-(naphthalen-2-yl)-1-phenylethanone-2-D]
IC50 [1]: 7.43 µM | IC50 [2]: 43.1 µM | IC50 [3]: 22 µM | IC50 [4]: > 50 µM | cell migration into the wound (KYSE-150 cells [5]; 10 μM): did not migrate into the wound | IC50 [7, 9]: < 10 µM | melting point: 129 to 130 °C | viability of KYSE-150 cells compared to controls (KYSE-150 cells [6]; 10 μM): did not alter the viability

COc1ccc(OC)c2cc(CC(=O)c3ccccc3)ccc12 [Compound 3ba, 2-(5,8-dimethoxynaphthalen-2-yl)-1-phenylethanone]
IC50 [1]: > 50 µM | IC50 [2]: > 50 µM | IC50 [3]: > 50 µM | IC50 [4]: > 50 µM | melting point: 145 to 146 °C

Cc1ccc(C)c2cc(CC(=O)c3ccccc3)ccc12 [Compound 3ca, 2-(5,8-dimethylnaphthalen-2-yl)-1-phenylethanone]
IC50 [1]: 19.2 µM | IC50 [2]: > 50 µM | IC50 [3]: > 50 µM | IC50 [4]: > 50 µM | melting point: 123 to 124 °C

Cc1cc2ccc(CC(=O)c3ccccc3)cc2cc1C [Compound 3da, 2-(6,7-dimethylnaphthalen-2-yl)-1-phenylethanone]
IC50 [1]: 7.69 µM | IC50 [2]: 3.71 µM | IC50 [3]: > 50 µM | IC50 [4]: 0.78 µM | cell migration into the wound (KYSE-150 cells [5]; 5 μM): did not migrate into the wound | melting point: 142 to 144 °C | viability of KYSE-150 cells compared to controls (KYSE-150 cells [6]; 5 μM): did not alter the viability

C(#Cc1ccc2cc3c(cc2c1)OCCO3)c1ccccc1 [Compound 3ga, 7-(phenylethynyl)-2,3-dihydronaphtho [2,3-b][1,4] dioxine]
IC50 [1]: 24.7 µM | IC50 [2]: 35.1 µM | IC50 [3]: 45.2 µM | IC50 [4]: 19.7 µM | cell migration into the wound (KYSE-150 cells [5]; 10 μM): did not migrate into the wound | melting point: 130 to 132 °C | viability of KYSE-150 cells compared to controls (KYSE-150 cells [6]; 10 μM): did not alter the viability

C(#Cc1ccc2cc3c(cc2c1)OCO3)c1ccccc1 [Compound 3ha, 6-(phenylethynyl) naphtho [2,3-d][1,3] dioxole]
IC50 [1]: 3.52 µM | IC50 [2]: 20.8 µM | IC50 [3]: 0.65 µM | IC50 [4]: 0.55 µM | IC50 [7, 9]: < 10 µM | melting point: 154 to 155 °C

From US9783519B2, “Palladium/silver co-catalyzed tandem reactions synthesis of phenylacetophenone derivatives by oxabenzonorbornadienes with terminal alkynes and their anti-tumor or anti-cancer activities” (Hong Kong Baptist University, priority 2015, dated 2017)
